Test results published in patent publication US9145424B2, “Treatment of amyotrophic lateral sclerosis” (Northwestern University, priority 2008, dated 2015).
Like-named read-outs stand apart in the source and are kept apart here. Blank lines part the entries; values can stand above or below the compound they belong to.

Columns and labels:
[1] = system: PC12 cells that express mutant G93A SOD1; assay: Mutant SOD1-induced cytotoxicity protection assay; conditions: for Corresponding % viability: rat, 48 h
Method: This idea was tested by examining the sensitivity of PC12 cells to SOD1 aggregates in the presence and absence of proteasome inhibitor MG132. PC12 cells expressing no SOD1, wild type SOD1, G85R SOD1 or G93A SOD1 were grown with or without MG132 (FIG. 1).
PC12 cells expressing G93A SOD1 were treated with 100 nM MG132 with or without co-treatment with geldanamycin or radicicol.

[2] = type: in vitro ADME; conditions: male, Sprague Dawley, rat, pH 7.4
[3] = system: PC12 cells expressing G93A SOD1; assay: Sensitivity of PC12 cells to proteasome inhibitor, calcein-AM viability; type: cell-based; conditions: compared with MG132
Method: FIGS. 1A-C. […] Cell survival was determined using the viability stain calcein-AM.

[4] = Rattus norvegicus, PC-12, read-out: Best EC50, PC12 G93A SOD1 cells, MG132, calcein-AM viability
[5] = Rattus norvegicus, PC-12, read-out: EC50 after Normalization, normalised with the corresponding 3299 EC50
[6] = read-out: Best EC50, PC12 G93A SOD1 cells, MG132, calcein-AM viability
[7] = read-out: EC50 after Normalization, normalised with the corresponding 3299 EC50

SMILES: CCc1ccccc1SCc1cc(=O)[nH][nH]1 [CMB-086901-1]
EC50 [1, 4]: 2060 nM
EC50 [1, 5]: 2500 nM
Corresponding % viability [1]: 106%

SMILES: O=c1cc(COc2ccc(Cl)cc2)[nH][nH]1 [CMB-086902-1]
EC50 [1, 5]: 650 nM
Corresponding % viability [1]: 131%
EC50 [1, 6]: 570 nM

SMILES: O=c1cc(COc2ccc(Cl)cc2)[nH][nH]1 [CMB-086902-2]
Corresponding % viability [1]: 117%
EC50 [1, 6]: 690 nM
EC50 [1, 7]: 790 nM

SMILES: O=c1cc(COc2ccc(Cl)cc2)[nH][nH]1 [CMB-086902-3]
Corresponding % viability [1]: 120%
EC50 [1, 6]: 3430 nM
EC50 [1, 7]: 770 nM

SMILES: CCc1ccc(S(=O)(=O)Cc2cc(=O)[nH][nH]2)cc1 [CMB-087210-1]
EC50 [1, 4]: 990 nM
EC50 [1, 5]: 900 nM
Corresponding % viability [1]: 101%

SMILES: CC(C)c1ccc(S(=O)(=O)Cc2cc(=O)[nH][nH]2)cc1 [CMB-087211-1]
EC50 [1, 4]: 750 nM
EC50 [1, 5]: 680 nM
Corresponding % viability [1]: 103%

SMILES: CCCCc1ccc(S(=O)(=O)Cc2cc(=O)[nH][nH]2)cc1 [CMB-087212-1]
EC50 [1, 4]: 990 nM
EC50 [1, 5]: 900 nM
Corresponding % viability [1]: 93%

SMILES: Cc1cc(S(=O)(=O)Cc2cc(=O)[nH][nH]2)c(C)cc1Cl [CMB-087213-1]
EC50 [1, 4]: 2280 nM
EC50 [1, 5]: 1470 nM
Corresponding % viability [1]: 116%

SMILES: CCc1cccc(OCc2cc(=O)[nH][nH]2)c1 [CMB-087214-1]
EC50 [1, 4]: 1120 nM
EC50 [1, 5]: 720 nM
Corresponding % viability [1]: 125%

SMILES: CC(C)(C)c1cccc(OCc2cc(=O)[nH][nH]2)c1 [CMB-087215-1]
EC50 [1, 4]: 1060 nM
EC50 [1, 5]: 870 nM
Corresponding % viability [1]: 141%

SMILES: O=c1cc(COc2cc(Cl)cc(Cl)c2)[nH][nH]1 [CMB-087229-1]
Corresponding % viability [1]: 129%
EC50 [1, 6]: 50 nM
EC50 [1, 7]: 67 nM

SMILES: O=c1cc(COc2cc(Cl)cc(Cl)c2)[nH][nH]1 [CMB-087229-5]
Corresponding % viability [1]: 123%
EC50 [1, 6]: 550 nM
EC50 [1, 7]: 310 nM

SMILES: O=c1cc(CS(=O)(=O)c2cc(Cl)cc(Cl)c2)[nH][nH]1 [CMB-087235-1]
EC50 [1, 4]: 360 nM
EC50 [1, 5]: 760 nM
Corresponding % viability [1]: 130%

SMILES: O=c1cc(CS(=O)(=O)c2cc(Cl)cc(Cl)c2)[nH][nH]1 [CMB-087235-2]
Corresponding % viability [1]: 132%
EC50 [1, 6]: 670 nM
EC50 [1, 7]: 1410 nM

SMILES: CCc1ccc(OCc2cc(=O)[nH][nH]2)cc1 [CMB-087241-1]
EC50 [1, 4]: 3290 nM
EC50 [1, 5]: 1960 nM
Corresponding % viability [1]: 88%

SMILES: O=c1cc(COc2ccc(Cl)c(Cl)c2)[nH][nH]1 [CMB-087242-1]
EC50 [1, 4]: 130 nM
EC50 [1, 5]: 580 nM
Corresponding % viability [1]: 136%

SMILES: O=c1cc(COc2cc(C(F)(F)F)cc(C(F)(F)F)c2)[nH][nH]1 [CMB-087260-1]
EC50 [1, 4]: 130 nM
EC50 [1, 5]: 580 nM
Corresponding % viability [1]: 120%

SMILES: Cn1[nH]c(COc2cc(Cl)cc(C(F)(F)F)c2)cc1=O [CMB-087264-1]
EC50 [1, 4]: 6670 nM
EC50 [1, 5]: 5130 nM
Corresponding % viability [1]: 109%

SMILES: Cn1[nH]c(COc2ccc(Cl)cc2)cc1=O [CMB-087362-1]
EC50 [1, 4]: 7600 nM
EC50 [1, 5]: 5850 nM
Corresponding % viability [1]: 107%

SMILES: Cn1c(COc2cc(Cl)cc(Cl)c2)cc(=O)n1C [CMB-087363-1]
EC50 [1, 4]: > 32000 nM

SMILES: O=c1cc(COc2cc(F)cc(F)c2)[nH][nH]1 [CMB-087627-1]
EC50 [1, 4]: 3210 nM
EC50 [1, 5]: 1070 nM
Corresponding % viability [1]: 125%

SMILES: O=c1cc(COc2cc(Br)cc(Br)c2)[nH][nH]1 [CMB-087628-1]
EC50 [1, 4]: 1540 nM
EC50 [1, 5]: 510 nM
Corresponding % viability [1]: 125%

SMILES: O=c1cc(COc2cccc(Br)c2)[nH][nH]1 [CMB-087642-1]
EC50 [1, 4]: 3060 nM
EC50 [1, 5]: 1020 nM
Corresponding % viability [1]: 144%

SMILES: O=c1cc(COc2cccc(-c3ccccc3)c2)[nH][nH]1 [CMB-087643-1]
EC50 [1, 4]: 8530 nM
EC50 [1, 5]: 2840 nM
Corresponding % viability [1]: 96%

SMILES: O=c1cc(COc2cc(-c3ccccc3)cc(-c3ccccc3)c2)[nH][nH]1 [CMB-087644-1]
EC50 [1, 4]: 11100 nM
EC50 [1, 5]: 3700 nM
Corresponding % viability [1]: 68%

SMILES: O=c1cc(CN(c2cc(Cl)cc(Cl)c2)S(=O)(=O)c2ccccc2)[nH][nH]1 [CMB-087645-1]
EC50 [1, 4]: 9040 nM
EC50 [1, 5]: 1430 nM
Corresponding % viability [1]: 111%

SMILES: O=c1cc(CNc2cc(Cl)cc(Cl)c2)[nH][nH]1 [CMB-087650-1]
EC50 [1, 4]: 2110 nM
EC50 [1, 5]: 330 nM
Corresponding % viability [1]: 128%

SMILES: CN(Cc1cc(=O)n(Cc2ccccc2)[nH]1)c1cc(Cl)cc(Cl)c1 [Compound 29, 2-Benzyl-5-(((3,5-dichlorophenyl)(methyl)amino)methyl)-1H-pyrazol-3(2H)-one]
activity in the cytotoxicity protection assay, in words [1]: comparable in activity to parent compound 3

SMILES: CN(Cc1cc(=O)n(C)[nH]1)c1cc(Cl)cc(Cl)c1 [Compound 30, 5-(((3,5-Dichlorophenyl)(methyl)amino)methyl)-2-methyl-1H-pyrazol-3(2H)-one]
activity in the cytotoxicity protection assay, in words [1]: comparable in activity to parent compound 3

SMILES: CN(Cc1cc(=O)[nH]n1C)c1cc(Cl)cc(Cl)c1 [Compound 31, 5-(((3,5-Dichlorophenyl)(methyl)amino)methyl)-1-methyl-1H-pyrazol-3(2H)-one]
activity in the cytotoxicity protection assay, in words [1]: devoid of activity

SMILES: Cc1c(CN(C)c2cc(Cl)cc(Cl)c2)n(C)n(C)c1=O [Compound 32, 5-(((3,5-Dichlorophenyl)(methyl)amino)methyl)-1,2,4-trimethyl-1H-pyrazol-3(2H)-one]
activity in the cytotoxicity protection assay, in words [1]: devoid of activity

SMILES: CN(Cc1cc(=O)n(C)n1C)c1cc(Cl)cc(Cl)c1 [Compound 33, 5-(((3,5-Dichlorophenyl)(methyl)amino)methyl)-1,2-dimethyl-1H-pyrazol-3(2H)-one]
activity in the cytotoxicity protection assay, in words [1]: devoid of activity

SMILES: CN1N=C(CN(C)c2cc(Cl)cc(Cl)c2)C(C)(C)C1=O [Compound 34, 3-(((3,5-Dichlorophenyl)(methyl)amino)methyl)-1,4,4-trimethyl-1H-pyrazol-5(4H)-one]
activity in the cytotoxicity protection assay, in words [1]: devoid of activity

% Mean ± S.E. ([2]; 0 min, 5 μM): 100 ± 11.5%
RR Mean (Response Ratio) ([2]; 0 min, 5 μM): 0.711
% Mean ± S.E. ([2]; 0 min, 15 μM): 100 ± 7.11%
RR Mean (Response Ratio) ([2]; 0 min, 15 μM): 22.88
% Mean ± S.E. ([2]; 20 min, 15 μM): 59.2 ± 14.9%
RR Mean (Response Ratio) ([2]; 20 min, 15 μM): 13.54
% Mean ± S.E. ([2]; 40 min, 5 μM): 45.2 ± 8.1^ %
RR Mean (Response Ratio) ([2]; 40 min, 5 μM): 0.321
SMILES: Cc1cc(-c2ccccc2)nnc1NCCN1CCOCC1 [Mina, Minaprine, reference compound]

% Mean ± S.E. ([2]; 0 min, 15 μM): 100 ± 12.6%
RR Mean (Response Ratio) ([2]; 0 min, 15 μM): 0.237
% Mean ± S.E. ([2]; 20 min, 15 μM): 109 ± 13.3%
RR Mean (Response Ratio) ([2]; 20 min, 15 μM): 0.261
% Mean ± S.E. ([2]; 40 min, 15 μM): 84.8 ± 21.8%
RR Mean (Response Ratio) ([2]; 40 min, 15 μM): 0.201
SMILES: O=c1cc(CS(=O)(=O)c2ccc(Cl)cc2)[nH][nH]1 [TC-II-70]

SMILES: O=c1cc(CSCc2ccc(Cl)cc2)[nH][nH]1 [TC-II-123]
EC50 [1, 4]: 4200 nM

SMILES: O=c1cc(CSCCOc2ccccc2)[nH][nH]1 [TC-II-140]
EC50 [1, 6]: 6200 nM

% Mean ± S.E. ([2]; 0 min, 15 μM): 100 ± 7.75%
% Mean ± S.E. ([2]; 60 min, 15 μM): 96.1 ± 7.66%
SMILES: CC(=O)CC(c1ccccc1)c1c(O)c2ccccc2oc1=O (centres unmarked) [War, warfarin, reference compound]

SMILES: CC(C)C[C@H](NC(=O)[C@H](Cc1ccccc1)NC(=O)c1cnccn1)B(O)O [bortezomib]
sensitivity to proteasome inhibition, in words [3]: Qualitatively similar results
